Measured values from publication PMC12475274, “Harnessing indole scaffolds to identify small-molecule IRE1α inhibitors modulating XBP1 mRNA splicing” (Nature Communications, 2025).
Several values for one entry are separate records, joined by “and”; a condition that tells them apart may be missing. Identical values can stand only once. Entries after “also recorded” stand apart in the source; their conditions may differ.

How the values were obtained:
p-IRE1α dimerization = target: T1, p-IRE1α dimerization (Homo sapiens, UniProt O75460); experiment: SDS-PAGE gel-based crosslinking assay
T1 construct: Human IRE1α kinase and RNase domain (residues 547–977) was subcloned into pLIB plasmid; His tag (with TEV cleavage site) (N, cleaved yes); made in house; host or cells: Sf9 insect cells, baculovirus (Bac-to-Bac)
From the text: sustained inhibition effect.”
Fig. R1. (A) Gel-based cleavage assay using the same condition as FRET assay. (B) Fig.4g of current manuscript, IA107 binding affinity towards p-IRE1α in MST assay.
-Using Refeyn mass photometry of cross-linked IRE1α complexes, the authors observe that […]
However, this finding appears inconsistent with their crystallographic data showing separated RNase domains in dimeric IRE1. Since both kinase and RNase domain interactions contribute to the IRE1 dimer interface, one would expect at least some reduction in dimerization levels. It is also a bit worrying that the authors observe that one of the control compounds tested (G1749) also blocks dimerization/oligomerization in their assay (Extended Data Fig. 6d and 6e), as this compound was found not to affect the monomer/dimer equilibrium of IRE1 in PMID: 33318494.
We appreciate the Reviewer’s comments regarding the dimerization experiments. Our crystal […]
remain in the same dimer interaction interface as the apo p-IRE1α dimer. […]
observe dimerization inhibition by IA107 in the mass photometry assay nor SDS-PAGE gel-based crosslinking assay (Fig. R2A). […]
Fig. R2. […] Analyzed using the PDBePISA web server (PMID: 17681537). […]
inhibits IRE1α's RNase activity (measured as spliced XBP1 levels) in cells through engagement of IRE1α. […]

A549 cells = experiment: Cell viability assay (CCK-8), A549; type: cell-based, human; details: A549; for inhibition at 50 µM: Homo sapiens, read-out: antiproliferation, inhibition at highest tested concentration
Experimental: (§1) Cells were collected and seeded into 96-well plates at a density of 2000–4000 cells per well and cultured overnight to allow cells to adhere. After adherence, cells were treated with the indicated compounds for 72 h. Then 20 μL CCK-8 solution (Vazyme, A311) was added into each well and incubated at 37 °C for 2–4 h. Absorbance was detected at a wavelength of 450 nm using a TECAN plate reader. Cell viability was calculated with the equation: Cell viability (%) = 100(Absorbance of treated cell - Absorbance of Blank control)/ (Absorbance of DMSO-treated cells - Absorbance of Blank control); Blank control: medium and CCK-8 solution, no cells.

[1] = tested on: IRE1α transcription level in HCT 116 cells; experiment: RT-qPCR of IRE1α transcription level, HCT 116; type: cell-based, human; details: HCT 116 cells
Experimental: A549 cells, HCT 116 cells, and HT-29 cells were collected and seeded in 6-well plates at a density of 5 × 10^5 cells per well and cultured overnight to attach, then treated with compound or DMSO for 2 h, then 0.5 μg/mL final concentration of tunicamycin (Tm, MP Biomedi, 0215002805) were added to induce the ER stress for 2 h. After treatment, total RNA was purified using an RNeasy mini kit (Qiagen, 74106). 500 ng of total RNA was used for reverse transcription using the High-Capacity cDNA Reverse Transcription Kits (Thermo Fisher, 4368814). cDNA was diluted 1: 5 using RNase-free water, and 1 μL CDNA was used for each qPCR reaction. The qPCR was performed using PowerUp™ SYBR™ Green Master Mix (Thermo Fisher, A25742) with 10 µL reaction volume using Bio-Rad CFX96 Real-Time PCR Detection System following the standard cycling mode (primer Tm ≥ 60 °C) on the manufacturer’s protocol. Data was analyzed using the 2^- ΔΔCt method. The primers used are listed in Supplementary Table S3. The inhibition % was calculated by using the equation: inhibition% = 100× (normalized Tm control - normalized of the sample)/(normalized Tm control - normalized DMSO control). Tm control: Cells treated with tunicamycin; DMSO control: Cells treated with DMSO only.

HT-29 cells = experiment: Cell viability assay (CCK-8), HT-29; type: cell-based, human; details: HT-29; for inhibition at 50 µM: Homo sapiens, read-out: antiproliferation, inhibition at highest tested concentration
Experimental: as §1

MDA-MB-468 cells = experiment: Cell viability assay (CCK-8), MDA-MB-468; type: cell-based, human; details: MDA-MB-468; for inhibition at 50 µM: Homo sapiens, read-out: antiproliferation, inhibition at highest tested concentration
Experimental: as §1

IRE1α = target: T2, IRE1α (Homo sapiens, UniProt O75460); experiment: Michaelis–Menten kinetic analysis with XBP1 RNA substrate; type: biochemical
T2 construct: Human IRE1α kinase and RNase domain (residues 547–977) was subcloned into pLIB plasmid; His tag (with TEV cleavage site) (N, cleaved yes); made in house; host or cells: Sf9 insect cells, baculovirus (Bac-to-Bac)
Experimental: I/s (fluorescence intensity/second), 7.98 FL. I/s, 2.33 FL. I/s and 0.9 FL. I/s, respectively.
The dual-labeled RNA substrate with a FAM at 5’ and the BHQ-1 at 3’ containing the XBP1 sequence (5′FAM-[…]-3′BHQ1) was purchased from Integrated DNA Technologies (IDT). The FRET-based IRE1α RNase activity assay was carried out in reaction buffer containing 20 mM HEPES pH 7.5, 50 mM KOAc, 1 mM MgOAc2, 1 mM DTT, 0.05% v/v TritonX-100, at a total reaction volume of 20 μL in a 384-well black plate (4514, Corning). […] […] The indicated compound and IRE1α protein were incubated for 30 min at room temperature before the substrate was added to the reaction. The plate was then kinetically read over one hour at room temperature using a TECAN Spark plate reader. The measurement was carried out using the fluorescence top reading mode at the excitation wavelength of 485 nm and the emission wavelength of 535 nm with a 10 nm excitation and emission bandwidth. The linear part of the reaction curve was adopted and fitted with sample linear regression to obtain the slope, and the slope was adopted to reflect the reaction rate. The inhibition % was calculated by using the equation: inhibition% = 100 × (slope of DMSO control – slope of the sample)/(slope of DMSO control – slope of blank control), DMSO control: DMSO with protein and RNA substrate; Blank control: DMSO with RNA substrate. The IC50 values were calculated using the concentration-response model in GraphPad Prism 9.

T2 sequence (O75460 547-977): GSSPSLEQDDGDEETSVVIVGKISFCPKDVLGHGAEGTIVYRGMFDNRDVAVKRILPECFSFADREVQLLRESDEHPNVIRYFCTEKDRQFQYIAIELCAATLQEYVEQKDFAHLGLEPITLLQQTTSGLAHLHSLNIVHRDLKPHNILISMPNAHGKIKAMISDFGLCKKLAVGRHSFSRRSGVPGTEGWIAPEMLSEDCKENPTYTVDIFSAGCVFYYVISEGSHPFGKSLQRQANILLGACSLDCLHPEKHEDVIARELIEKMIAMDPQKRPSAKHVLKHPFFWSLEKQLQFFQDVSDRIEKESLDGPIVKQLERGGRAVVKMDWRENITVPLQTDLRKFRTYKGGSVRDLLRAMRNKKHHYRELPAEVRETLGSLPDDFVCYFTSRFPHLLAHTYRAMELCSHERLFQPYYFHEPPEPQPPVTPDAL
T1 sequence (O75460 547-977): as above

SMILES	effect on p-IRE1α dimerization (p-IRE1α dimerization)	cytotoxicity (A549 cells)	inhibition at 50 µM (A549 cells) [%]	effect on IRE1α transcription level [1]	cytotoxicity (HT-29 cells)	inhibition at 50 µM (HT-29 cells) [%]	inhibition at 50 µM (MDA-MB-468 cells) [%]	cytotoxicity (MDA-MB-468 cells)	inhibition mechanism towards the XBP1 mRNA substrate (IRE1α)	Vmax (IRE1α; 0.01 μM IA107) [FL. I/s]	Vmax (IRE1α; 0.1 μM IA107) [FL. I/s]	Vmax (IRE1α; 1 μM IA107) [FL. I/s]	IRE1a Velocity (IRE1α; RNA 5000 nM, IA107 0.01 μM)	IRE1a Velocity (IRE1α; RNA 5000 nM, IA107 0.1 μM)	IRE1a Velocity (IRE1α; RNA 5000 nM, IA107 1 μM)	IRE1a Velocity (IRE1α; RNA 10000 nM, IA107 0.01 μM)	IRE1a Velocity (IRE1α; RNA 10000 nM, IA107 0.1 μM)	IRE1a Velocity (IRE1α; RNA 10000 nM, IA107 1 μM)
Cc1ccc2c(NS(=O)(=O)c3ccccc3Cl)cccc2c1Oc1ncccc1-c1ccnc(N[C@H]2CCCNC2)n1 [KIRA8]	inhibited dimerization																	
CCOC(=O)CCc1c(C)n(C(=O)c2ccccc2)c2ccc(Br)cc12 [IAPD1]		did not show cytotoxicity	< 30	did not influence; also recorded: no obvious impact	did not show cytotoxicity	< 30	< 30	did not show cytotoxicity										
Cc1c(CCC(=O)O)c2cc(Br)ccc2n1C(=O)c1ccccc1 [IA107]	did not	did not show cytotoxicity	< 30		did not show cytotoxicity	< 30	< 30	did not show cytotoxicity	non-competitive	7.98	2.33	0.9	7.329 FL.I/s and 6.249 FL.I/s	1.807 FL.I/s and 2.323 FL.I/s	0.681 FL.I/s and 0.661 FL.I/s	7.224 FL.I/s and 6.354 FL.I/s	1.848 FL.I/s and 1.988 FL.I/s	0.902 FL.I/s and 0.839 FL.I/s
